US10023593B2, “ALK kinase inhibitor, and preparation method and uses thereof” (BEIJING PEARL BIOTECHNOLOGY LIMITED LIABILITY COMPANY, priority 2014, dated 2018)

How the values were obtained:
Wild Type ALK kinase = molecular target: T1, Wild Type ALK kinase (Homo sapiens, UniProt Q9UM73); assay: HTRF KinEASE-TK assay, inhibitory activity on wild type ALK kinase; format: biochemical; details: wild type ALK 1 ng/μl, substrate 1 μM, 30° C. 35 minutes, read-out: Inhibition on ALK kinases (wildtype), IC50
T1 construct: purchased Sino-US Crown Bioscience, Inc. batch number ALK 20110607
Text: 1. Inhibitory Activities of the Compounds of the Present Invention on Wild Type ALK Kinases
? experimental method ? HTRF KinEASE™-TK Assay kit from Cisbio company was used to detect inhibitory activities of the compounds on wildtype ALK kinases (wild type ALK kinases).
(§1) ? instrument ? Envision 2104 plate reader from PerKinElmer company.
(§2) ? experiment material ? HTRF KinEASE™-TK Assay Kit (Cisbio company, catalog No. 62TK0PEC); Wild Type ALK kinase (produced by Sino-US Crown Bioscience, Inc., batch number ALK 20110607); DTT (Gibco BRL company, catalog No. 15508-012); MgCl2 (Sigma Aldrich company, catalog No. M-2670); ATP (Sigma Aldrich company, catalog No. A-7699); DMSO (AMRESCO company, catalog No. 0231); EDTA (AMRESCO company, catalog No. 0105); 96 wells plates (for diluting compounds) (CITOTEST company, catalog No. Ref36020096D); OptiPlate™-384 (White), PerkinElmer company, catalog No. P12-004)
(§3) ? experimental condition ? Compounds (the final concentration of DMSO was 1%), the reaction substrate (the final concentration was 1 μM), ATP (the final concentration was 2004), and Wildtype ALK kinases (the final concentration was 1 ng/μl) were mixed respectively in a final volume of 10 μl reaction system (containing 5 mM MgCl2, 1× Kinase buffer, and 1 mM DTT). The mixture was reacted at 30° C. for 35 minutes after shaking for 30 seconds. After completion of the reaction, each well was added with 5 μl Sa-XL665 and 5 μl TK Antibody-Eu(K), and placed in the dark for 60 minutes to end the reaction after uniform mixing. The data was read from PerkinElmer EnVision plate reader ([…]), the 665/615 ratio was calculated, and the data was analyzed.
(§4) ? tested samples ? Compounds from the examples.
(§5) ? data analysis ? Minimum 665/615 ratio (Rmin, 665/615 ratio under the condition that 10.4 μM positive control drug LDK-378 was added)
(§6) Maximum 665/615 ratio (Rmax, 665/615 ratio under the condition that no compound was added)
(§7) Tested 665/615 ratio (Rcompound, 665/615 ratio under the condition that a given concentration of compound was added) Inhibition rate (%)=[1−(Rcompound−Rmin)/(Rmax−Rmin)]×100
(§8) ? data processing ? IC50 of compounds was calculated by using XLfit program in Excel.

L1196M mutant ALK kinase = molecular target: T2, L1196M mutant ALK kinase (Homo sapiens, UniProt Q9UM73, L1196M); assay: HTRF KinEASE-TK assay, inhibitory activity on L1196M mutant ALK kinase; format: biochemical; details: L1196M mutant ALK 1 ng/μl, substrate 1 μM, ATP 5 μM, 30° C. 35 minutes, read-out: Inhibition on ALK kinases (L1196M mutant), IC50
T2 construct: purchased Sino-US Crown Bioscience, Inc. batch number ALKm_20110923
Text: 2. Inhibitory Activities of the Compounds of the Present Invention on L1196M Mutant ALK Kinases
? experimental method ? HTRF KinEASE™-TK Assay kit from Cisbio company was used to detect inhibitory activities of the compounds on L1196M mutant ALK kinases.
as §1
as §2, with “L1196M mutant” for “Wild Type”, “ALKm_20110923);” for “ALK 20110607);”, “A-7699, batch number 051M7014V);” for “A-7699);”
as §3, with “5 μM),” for “2004),”, “L1196M mutant” for “Wildtype”
as §4, §5, §6, §7, §8

NCI-H2228 cell line = assay: CellTiter-Glo cell proliferation inhibition on NCI-H2228 cell line; format: cell-based; details: Homo sapiens, NCI-H2228, 96 h, NCI-H2228 cells, 5000 cells/well, 4 days drug treatment
Method in brief: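 NCI-H2228 cells, 5000/well in RPMI-1640 + 10% FBS, treated with compounds 2 h after seeding (0.5% DMSO final) for 4 days at 37° C. Viability by CellTiter-Glo luminescence; inhibition relative to DMSO control, IC50 from curve fit.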

T2 sequence (Q9UM73 19-1620 L1196M): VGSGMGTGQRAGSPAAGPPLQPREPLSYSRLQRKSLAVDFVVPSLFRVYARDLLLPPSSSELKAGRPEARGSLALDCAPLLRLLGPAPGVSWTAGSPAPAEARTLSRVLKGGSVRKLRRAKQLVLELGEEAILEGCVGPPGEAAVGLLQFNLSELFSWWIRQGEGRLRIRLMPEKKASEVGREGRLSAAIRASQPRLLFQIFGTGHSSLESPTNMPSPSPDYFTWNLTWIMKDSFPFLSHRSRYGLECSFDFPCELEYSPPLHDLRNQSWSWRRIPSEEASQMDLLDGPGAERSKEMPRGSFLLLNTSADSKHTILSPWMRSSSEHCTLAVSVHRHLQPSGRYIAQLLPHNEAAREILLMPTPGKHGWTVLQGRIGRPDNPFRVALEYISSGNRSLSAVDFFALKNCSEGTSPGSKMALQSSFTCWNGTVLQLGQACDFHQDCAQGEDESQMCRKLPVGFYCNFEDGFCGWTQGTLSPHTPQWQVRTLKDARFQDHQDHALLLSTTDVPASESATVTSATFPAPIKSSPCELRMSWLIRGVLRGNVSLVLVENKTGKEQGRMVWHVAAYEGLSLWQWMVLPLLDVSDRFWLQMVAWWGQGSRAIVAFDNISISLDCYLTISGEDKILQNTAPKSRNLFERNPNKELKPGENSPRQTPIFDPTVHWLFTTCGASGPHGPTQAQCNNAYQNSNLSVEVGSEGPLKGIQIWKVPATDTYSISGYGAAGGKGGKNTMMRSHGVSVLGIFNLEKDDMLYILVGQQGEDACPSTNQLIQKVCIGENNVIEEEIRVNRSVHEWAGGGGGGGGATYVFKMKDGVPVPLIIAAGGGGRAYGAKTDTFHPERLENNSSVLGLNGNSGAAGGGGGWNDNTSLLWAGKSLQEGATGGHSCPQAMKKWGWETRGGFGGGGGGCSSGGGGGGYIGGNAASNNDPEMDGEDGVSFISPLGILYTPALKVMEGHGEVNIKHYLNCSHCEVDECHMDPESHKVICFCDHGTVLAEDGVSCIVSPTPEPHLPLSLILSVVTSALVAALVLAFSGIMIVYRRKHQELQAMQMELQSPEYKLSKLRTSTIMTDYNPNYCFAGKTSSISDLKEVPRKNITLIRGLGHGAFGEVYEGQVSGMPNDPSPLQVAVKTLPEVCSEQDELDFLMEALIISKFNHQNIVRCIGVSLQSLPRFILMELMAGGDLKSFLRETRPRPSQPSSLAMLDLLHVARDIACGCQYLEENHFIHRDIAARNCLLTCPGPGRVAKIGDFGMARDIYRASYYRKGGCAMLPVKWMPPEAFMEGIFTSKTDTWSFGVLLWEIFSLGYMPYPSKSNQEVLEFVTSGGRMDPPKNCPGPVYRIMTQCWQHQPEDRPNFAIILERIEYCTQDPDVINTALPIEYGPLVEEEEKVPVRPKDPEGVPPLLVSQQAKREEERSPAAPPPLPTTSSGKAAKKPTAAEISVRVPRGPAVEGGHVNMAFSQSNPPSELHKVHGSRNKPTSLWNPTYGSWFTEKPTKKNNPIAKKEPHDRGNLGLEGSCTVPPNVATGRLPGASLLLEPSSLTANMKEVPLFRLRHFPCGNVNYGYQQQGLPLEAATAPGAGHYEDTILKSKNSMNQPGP
T1 sequence (Q9UM73 19-1620): as the sequence (Q9UM73 19-1620 L1196M) above, with M1178L counted along it

IC50 (Wild Type ALK kinase) [nM] | IC50 (L1196M mutant ALK kinase) [nM] | IC50 (NCI-H2228 cell line) [nM] | Compound
2 | 4 | 87 | Cc1cc(Nc2ncc(C#N)c(Nc3cn(C)nc3S(=O)(=O)C(C)C)n2)c(OC2CC2)cc1C1CCN(C)CC1 [Final product 210, N^2-[2-cyclopropoxy-4-(1-methyl-piperidin-4-yl)-5-methyl-phenyl]-N^4-[1-methyl-3-(isopropylsulfonyl)-1H-pyrazol-4-yl]-5-(cyano)pyrimidin-2,4-diamine]
3 | 11 | 272 | Cc1cc(Nc2ncc(Cl)c(Nc3cn(C)nc3C#N)n2)c(OC2CC2)cc1C1CCN(C)CC1 [Final product 211, 5-chloro-N^2-[2-cyclopropoxy-4-(1-methyl-piperidin-4-yl)-5-methyl-phenyl]-N^4-[1-methyl-3-cyano-1H-pyrazol-4-yl]-pyrimidin-2,4-diamine]
19 | 22 | 964 | Cc1cc(Nc2nc(Nc3cc(C)c(C4CCN(C(C)C)CC4)cc3C)ncc2Cl)n[nH]1 [Final product 213, reference compound]
27 | 49 | 1070 | Cc1cc(Nc2nc(Nc3cc(C)c([C@H]4CC[C@H](N5CCN(C)CC5)CC4)cc3F)ncc2Cl)[nH]n1 [Final product 218, reference compound]

Further lines, the molecule ahead of its results:

Compound | IC50 (Wild Type ALK kinase) [nM] | IC50 (L1196M mutant ALK kinase) [nM] | IC50 (NCI-H2228 cell line) [nM]
Cc1cc(Nc2nc(Nc3cc(C)c(C4CCN(C)CC4)cc3OC(C)C)ncc2Cl)n[nH]1 [Final product 212, 5-chloro-N^2-[2-isopropoxy-4-(1-methyl-piperidin-4-yl)-5-methyl-phenyl]-N^4-[5-methyl-1H-pyrazol-3-yl]-pyrimidin-2,4-diamine, reference compound] | 13 | 37 | 725
Cc1cc(Nc2nc(Nc3cc(C)c(C4CCCNC4)cc3C)ncc2Cl)n[nH]1 (stereo not drawn) [Final product 214, reference compound] | 22 | 54 | 1240
Cc1cc(Nc2nc(Nc3cc(C)c(C4CCN(CCO)CC4)cc3C)ncc2Cl)n[nH]1 [Final product 215, reference compound] | 28 | 39 | 1040
CNC(=O)CN1CCC(c2cc(OC)c(Nc3ncc(Cl)c(Nc4cc(C)n[nH]4)n3)cc2C)CC1 [Final product 216, reference compound] | 17 | 28 | 948
Cc1cc(Nc2nc(Nc3cc(C)c(C4CCN(S(C)(=O)=O)CC4)cc3C)ncc2Cl)n[nH]1 [Final product 217, reference compound] | 20 | 69 | 1130
